Experimental data: patent US20190185339A1, “Zirconium-Based Cluster as a Dentin Tubule Occlusion Agent” (Colgate-Palmolive Company, priority 2017, published 2019)

How the values were obtained:
[1] = pH of the zirconium oxychloride / arginine solutions; type: physicochemical
Procedure: (§1) Samples were prepared according to Table 1. Water was added to zirconium oxychloride (ZrOCl2.8H2O, MW 322.25) in a glass jar to yield a clear solution containing 1% zirconium oxychloride. Under stirring, L-arginine was slowly added to prevent clumping of arginine as well as large fluctuations in localized pH values. The solutions were incubated for 1 day at 50° C. Then the solutions were cooled to room temperature. Solid gel was formed in samples with the molar ratio of arginine to zirconium oxychloride of 2-4.
A 100 g batch was prepared according to Table 2. 1% w/w zirconium oxychloride (ZrOCl2.8H2O, MW 322.25) and arginine were mixed in aqueous solution with the molar ratio of arginine to zirconium oxychloride of 1:1.
(§2) The zirconium oxychloride cluster was prepared as described in Example 1. The prepared zirconium oxychloride cluster was purified by gel permeability chromatograph (GPC). GPC column was prepared using Bio-Rad P2 gel with 5 μm particle size. Approximately 10 mL of prepared solution was filtered (0.45 μm) and loaded on the column using a HPLC pump at 0.2 mL/min. The mobile phase of the GPC chromatography was deionized water. Elution fractions were collected in intervals and monitored using SEC-RI. […] The pH of the GPC fraction (1160-1300 min) was 4.5. […] 10 g of this fraction was freeze dried to obtain purified powder for subsequent PXRD analysis.

[2] = Stability in terms of gelation and flocculation (clear or gel); type: physicochemical; conditions: 1% zirconium oxychloride with varied arginine; incubated 1 day at 50° C., cooled to room temperature
Procedure: In some embodiments, the zirconium oxychloride cluster of the invention is stable at pH 2-6, 3-5, 3-4, 3.5-4.5 or 4-4.5, in solution, e.g., in aqueous solution.
as §1, §2

[3] = solution of zirconium oxychloride which is effective as an antiperspirant; cited from earlier work

- pH ([1]; 1% zirconium oxychloride with varied arginine, incubated 1 day at 50° C., cooled to room temperature): 1.39
- pH value ([1]; zirconium oxychloride alone, general statement): < 2
- appearance (clear / gel) [2]: clear
Structure (SMILES): [Cl-].[Cl-].[O]=[Zr+2] [Zr, zirconium oxychloride (ZrOCl2.8H2O, MW 322.25)]
- pH of solution [3]: about 0.8
